{"source": "paper PMC6934184", "about": "“Selective DNA-PKcs inhibition extends the therapeutic index of localized radiotherapy and chemotherapy” (The Journal of Clinical Investigation, 2019)", "molecular_target": "T1, PAK6 (Homo sapiens, UniProt Q9NQU5)", "T1 construct": "purchased Thermo Fisher Scientific (Life Technologies) SelectScreen", "T1 sequence (Q9NQU5 whole entry)": "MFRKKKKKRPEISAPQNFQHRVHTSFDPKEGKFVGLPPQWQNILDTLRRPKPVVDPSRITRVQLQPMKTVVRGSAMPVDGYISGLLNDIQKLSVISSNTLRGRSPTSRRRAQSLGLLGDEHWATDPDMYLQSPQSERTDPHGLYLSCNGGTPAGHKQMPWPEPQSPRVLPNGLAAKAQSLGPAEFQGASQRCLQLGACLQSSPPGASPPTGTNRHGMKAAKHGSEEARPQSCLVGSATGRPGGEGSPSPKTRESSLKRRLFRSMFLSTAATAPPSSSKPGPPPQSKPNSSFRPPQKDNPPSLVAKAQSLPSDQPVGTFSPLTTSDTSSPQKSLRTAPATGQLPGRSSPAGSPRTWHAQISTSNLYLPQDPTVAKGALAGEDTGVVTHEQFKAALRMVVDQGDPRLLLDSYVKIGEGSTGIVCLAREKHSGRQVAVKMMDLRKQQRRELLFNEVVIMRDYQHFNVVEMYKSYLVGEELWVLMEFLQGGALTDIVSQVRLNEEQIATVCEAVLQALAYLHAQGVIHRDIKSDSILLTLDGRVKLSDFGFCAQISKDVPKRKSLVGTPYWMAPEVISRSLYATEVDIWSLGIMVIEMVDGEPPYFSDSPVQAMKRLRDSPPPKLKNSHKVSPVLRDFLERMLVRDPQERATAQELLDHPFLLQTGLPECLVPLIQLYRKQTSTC", "test": "SelectScreen Z'LYTE", "assay_type": "biochemical", "in_short": "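SelectScreen broad panel; activity (Z'LYTE, Adapta) plus binding formats. ATP: Km app for CSF1R Z'LYTE; 10 for CAMK1 Adapta. Readout = % per kinase.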", "data": [{"smiles": "CN(C(=O)CN1CCOCC1)c1ccc2sc3c(-c4cccc5c(=O)cc(N6CC7CCC(C6)O7)oc45)cccc3c2c1", "note": "[NU5455]", "values": [{"measurement": "inhibition at 1 µM", "result": 3, "unit": "%"}]}]}
